Experimental data taken from patent publication US20260223850A1, “SUBSTITUTED PYRROLIDONE COMPOUND, PREPARATION METHOD THEREFOR, COMPOSITION AND APPLICATION THEREOF” (QINGDAO KINGAGROOT CHEMICAL COMPOUND CO., LTD., priority 2023, published 2026).

Tests used:
Format in all cases: in vivo
Details in all cases: 120 g a.i./ha, seedling stage sealing, 15 days, fresh weight control rate
[1] = system: Echinochloa crusgalli; assay: Seedling stage sealing experiment for water-seeding
Description: (§1) The activity level criteria for plant damage (i.e., growth control rate) are as follows: • Level 9: completely dead; • Level 8: growth control rate greater than or equal to 90% and less than 100%; • Level 7: growth control rate greater than or equal to 80% and less than 90%; • Level 6: growth control rate greater than or equal to 70% and less than 80%; • Level 5: growth control rate greater than or equal to 50% and less than 70%; • Level 4: growth control rate greater than or equal to 30% and less than 50%; • Level 3: growth control rate greater than or equal to 20% and less than 30%; • Level 2: growth control rate greater than or equal to 10% and less than 20%; • Level 1: growth control rate less than 10%; • Level 0: no effect.
(§2) The above growth control rates are fresh weight control rates.
(§3) Echinochloa phyllopogon, Digitaria sanguinalis, Huaidao (rice cultivar), etc. were broadcasted on the surface of nutrition bowls filled with soil and fully covered by soil. The foregoing well-prepared nutrition bowls were then placed in a cultivation box with water filled to a suitable height to keep the soil in the nutrition bowls moist. A test compound of the present invention was individually dissolved with acetone, then diluted into solution of a certain concentration using a certain amount of water, and sprayed using a spray tower. The plants were placed on a greenhouse seedbed and cultured for 15 days, and the experimental results were then collected. The compound was applied at 120, 60, 30 and 15 g a.i./ha in triplicate, and the results were averaged.

[2] = system: Echinochloa phyllopogon; assay: as above
Description: as §1, §2, §3

[3] = system: Huaidao (rice cultivar); assay: Seedling stage sealing experiment for water-seeding (crop safety)
Description: as §1, §2, §3

| Structure (SMILES) | Echinochloa crusgalli activity level (growth control rate) [1] | Echinochloa phyllopogon activity level (growth control rate) [2] | Huaidao (rice cultivar) plant damage level [3] |
| --- | --- | --- | --- |
| Cc1c(NC(=O)[C@H]2C(=O)N(C)C[C@@H]2c2cccc(C(F)(F)F)c2)cnn1C [189′] | 9 | 9 | 0 |
| COC(=O)c1c(NC(=O)[C@H]2C(=O)N(C)C[C@@H]2c2cccc(C(F)(F)F)c2)cnn1C [199′] | 6 (Level 6: growth control rate greater than or equal to 70% and less than 80%) | 6 (Level 6: growth control rate greater than or equal to 70% and less than 80%) | 0 |
| Cc1nn(C(F)F)c(Cl)c1NC(=O)[C@H]1C(=O)N(C)C[C@@H]1c1cccc(C(F)(F)F)c1 [209′] | 7 (Level 7: growth control rate greater than or equal to 80% and less than 90%) | 6 (Level 6: growth control rate greater than or equal to 70% and less than 80%) | 0 |
| COc1cccc([C@H]2CN(C)C(=O)[C@@H]2C(=O)Nc2cnn(C(F)F)c2Cl)c1 [215′] | 9 | 8 (Level 8: growth control rate greater than or equal to 90% and less than 100%) | 0 |
| CCc1ccc([C@H]2CN(C)C(=O)[C@@H]2C(=O)Nc2cnn(C)c2Cl)cc1 [244′] | 9 | 7 (Level 7: growth control rate greater than or equal to 80% and less than 90%) | 0 |
| Cc1cc(F)cc([C@H]2CN(C)C(=O)[C@@H]2C(=O)Nc2cnn(C)c2Cl)c1 [264′] | 9 | 9 | 0 |
| Cc1cc(C)cc([C@H]2CN(C)C(=O)[C@@H]2C(=O)Nc2cnn(CC(F)(F)F)c2Cl)c1 [268′] | 7 (Level 7: growth control rate greater than or equal to 80% and less than 90%) | 6 (Level 6: growth control rate greater than or equal to 70% and less than 80%) | 0 |
| Cc1cc(C)cc([C@H]2CN(C)C(=O)[C@@H]2C(=O)Nc2cnn(C)c2F)c1 [271′] | 9 | 9 | 0 |
| Cc1cc(C)cc([C@H]2CN(C)C(=O)[C@@H]2C(=O)Nc2cnn(C)c2C)c1 [272′] | 9 | 7 (Level 7: growth control rate greater than or equal to 80% and less than 90%) | 0 |
| CCc1c(NC(=O)[C@H]2C(=O)N(C)C[C@@H]2c2cc(C)cc(C)c2)cnn1C [273′] | 9 | 6 (Level 6: growth control rate greater than or equal to 70% and less than 80%) | 0 |
| C=C(C)c1c(NC(=O)[C@H]2C(=O)N(C)C[C@@H]2c2cc(C)cc(C)c2)cnn1C [276′] | 9 | 6 (Level 6: growth control rate greater than or equal to 70% and less than 80%) | 0 |
| CN1C[C@H](c2cc(Br)cc(C(F)(F)F)c2)[C@@H](C(=O)Nc2cnn(C)c2Cl)C1=O [294′] | 9 | 7 (Level 7: growth control rate greater than or equal to 80% and less than 90%) | 0 |
| COc1cc(OC)cc([C@H]2CN(C)C(=O)[C@@H]2C(=O)Nc2cnn(C)c2Cl)c1 [302′] | 9 | 6 (Level 6: growth control rate greater than or equal to 70% and less than 80%) | 0 |
| Cc1ccc([C@H]2CN(C)C(=O)[C@@H]2C(=O)Nc2cnn(C)c2Cl)cc1C [314′] | 9 | 9 | 0 |
| CN1C[C@H](c2cc(Cl)c(Cl)c(C(F)(F)F)c2)[C@@H](C(=O)Nc2cnn(C)c2Cl)C1=O [326′] | 8 (Level 8: growth control rate greater than or equal to 90% and less than 100%) | 7 (Level 7: growth control rate greater than or equal to 80% and less than 90%) | 0 |
| CCc1ccc([C@H]2CN(C)C(=O)[C@@H]2C(=O)Nc2cnn(C)c2Cl)s1 [338′] | 9 | 6 (Level 6: growth control rate greater than or equal to 70% and less than 80%) | 0 |

| Structure (SMILES) | Echinochloa crusgalli activity level (growth control rate) [1] | Echinochloa phyllopogon activity level (growth control rate) [2] | Huaidao (rice cultivar) plant damage level [3] |
| --- | --- | --- | --- |
| COCc1c(NC(=O)[C@H]2C(=O)N(C)C[C@@H]2c2cccc(C)c2)cnn1C [378′] | 9 | 6 (Level 6: growth control rate greater than or equal to 70% and less than 80%) | 0 |
| C=C(C)c1c(NC(=O)[C@H]2C(=O)N(C)C[C@@H]2c2cccc(C)c2)cnn1C [379′] | 9 | 6 (Level 6: growth control rate greater than or equal to 70% and less than 80%) | 0 |
| C=CCn1ncc(NC(=O)[C@H]2C(=O)N(C)C[C@@H]2c2cccc(C)c2)c1Cl [381′] | 9 | 6 (Level 6: growth control rate greater than or equal to 70% and less than 80%) | 0 |
| CCn1ncc(NC(=O)[C@H]2C(=O)N(C)C[C@@H]2c2cccc(C)c2)c1Cl [385′] | 9 | 9 | 2 (Level 2: growth control rate greater than or equal to 10% and less than 20%) |
| COCCn1ncc(NC(=O)[C@H]2C(=O)N(C)C[C@@H]2c2cccc(C)c2)c1Cl [386′] | 9 | 6 (Level 6: growth control rate greater than or equal to 70% and less than 80%) | 0 |
| Cc1cccc([C@H]2CN(C)C(=O)[C@@H]2C(=O)Nc2cnn(C)c2F)c1 [388′] | 9 | 6 (Level 6: growth control rate greater than or equal to 70% and less than 80%) | 0 |
| Cc1cccc([C@H]2CN(C)C(=O)[C@@H]2C(=O)Nc2cnn(C)c2Br)c1 [389′] | 9 | 9 | 0 |
| Cc1cccc([C@H]2CN(C)C(=O)[C@@H]2C(=O)Nc2cnn(C)c2C#N)c1 [391′] | 9 | 9 | 0 |
| CCn1ncc(NC(=O)[C@H]2C(=O)N(C)C[C@@H]2c2cccc(C)c2)c1C1CC1 [394′] | 9 | 6 (Level 6: growth control rate greater than or equal to 70% and less than 80%) | 0 |
| Cc1cccc([C@H]2CN(C)C(=O)[C@@H]2C(=O)Nc2cn(C)nc2I)c1 [399′] | 9 | 9 | 0 |
| C=Cc1c(NC(=O)[C@H]2C(=O)N(C)C[C@@H]2c2cccc(C(F)(F)F)c2)cnn1C(F)F [406′] | 9 | 9 | 2 (Level 2: growth control rate greater than or equal to 10% and less than 20%) |
| C=C(C)c1c(NC(=O)[C@H]2C(=O)N(C)C[C@@H]2c2cccc(C(F)(F)F)c2)cnn1C [407′] | 9 | 9 | 0 |
| CCn1ncc(NC(=O)[C@H]2C(=O)N(C)C[C@@H]2c2cccc(C(F)(F)F)c2)c1C1CC1 [408′] | 9 | 9 | 0 |
| CN1C[C@H](c2cccc(C3CC3)c2)[C@@H](C(=O)Nc2cnn(C(F)F)c2Cl)C1=O [413′] | 9 | 9 | 0 |
| Cc1cc(C)cc([C@H]2CNC(=O)[C@@H]2C(=O)Nc2cnn(C)c2Cl)c1 [416′] | 9 | 6 (Level 6: growth control rate greater than or equal to 70% and less than 80%) | 0 |
| Cc1cc(C)cc([C@H]2CN(C)C(=O)[C@@H]2C(=O)Nc2cnn(C(C)C)c2Cl)c1 [419′] | 9 | 9 | 0 |
